Results published in PubChem BioAssay AID328 (DTP/NCI, 2004).
Several values for one entry are separate records, joined by “and”; a condition that tells them apart may be missing. Equal values may be shown once. Inconclusive results and toxic doses are left out.

Tested on: BDF1 mice, P388 leukemia ip, median survival T/C
Experiment: NCI In Vivo Anticancer Drug Screen. Data for tumor model P388 Leukemia (intraperitoneal) in B6D2F1 (BDF1) mice
Conditions: endpoint: median survival time, higher = longer survival
How it was run: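 Antitumour effect was judged in vivo: survival in drug-treated mice, normalised to that of vehicle-dosed controls, gives the reported T/C.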

[1] = dose: 50.0 mg/kg/injection, schedule: Q01DX009 (ip), vehicle: saline with Tween-80

Which results are given for `CCCCCCCOC(C[N+](=O)[O-])C(Cl)(Cl)Cl` (stereo unspecified)?
T/C (dose: 12.5 mg/kg/injection, schedule: Q01DX009 (ip), vehicle: saline): 120 % of control; T/C (dose: 25.0 mg/kg/injection, schedule: Q01DX009 (ip), vehicle: saline): 120 % of control; T/C (dose: 37.5 mg/kg/injection, schedule: Q04DX003 (ip), vehicle: saline): 100 % of control; T/C (dose: 50.0 mg/kg/injection, schedule: Q01DX009 (ip), vehicle: saline): 120 % of control; T/C (dose: 75.0 mg/kg/injection, schedule: Q04DX003 (ip), vehicle: saline): 95 % of control; T/C (dose: 150.0 mg/kg/injection, schedule: Q04DX003 (ip), vehicle: saline): 95 % of control; T/C (dose: 340.0 mg/kg/injection, schedule: Q04DX003 (ip), vehicle: saline): 90 % of control

What does the source list for `Cc1ccc(N=NNc2ccc(C)cc2)cc1`?
T/C (dose: 100.0 mg/kg/injection, schedule: Q01DX001 (ip), vehicle: Klucel (hydroxypropylcellulose) (HPC)): 104 % of control; T/C (dose: 200.0 mg/kg/injection, schedule: Q01DX001 (ip), vehicle: Klucel (hydroxypropylcellulose) (HPC)): 104 % of control; T/C (dose: 400.0 mg/kg/injection, schedule: Q01DX001 (ip), vehicle: Klucel (hydroxypropylcellulose) (HPC)): 112 % of control

`ClCC[N-]CC[N-]CCCl.ClCC[N-]CC[N-]CCCl.[O-][Cl+3]([O-])([O-])O.[Zn+2]` was tested. Which T/C (dose: 2.5 mg/kg/injection, schedule: Q04DX003 (ip), vehicle: Klucel (hydroxypropylcellulose) (HPC)) did it give?
The T/C was 105 % of control.

What about the T/C (dose: 5.0 mg/kg/injection, schedule: Q03DX003 (ip), vehicle: saline) of the same compound?
The T/C was 110 % of control.

What about the T/C (dose: 5.0 mg/kg/injection, schedule: Q04DX003 (ip), vehicle: Klucel (hydroxypropylcellulose) (HPC)) of the same compound?
The T/C was 112 % of control.

What about the T/C (dose: 10.0 mg/kg/injection, schedule: Q04DX003 (ip), vehicle: Klucel (hydroxypropylcellulose) (HPC)) of the same compound?
Its T/C is 108 % of control.

What about the T/C (dose: 20.0 mg/kg/injection, schedule: Q04DX003 (ip), vehicle: Klucel (hydroxypropylcellulose) (HPC)) of the same compound?
Its T/C is 124 % of control.

And the T/C (dose: 40.0 mg/kg/injection, schedule: Q03DX003 (ip), vehicle: saline)?
Its T/C is 75 % of control.

And the T/C (dose: 40.0 mg/kg/injection, schedule: Q04DX003 (ip), vehicle: Klucel (hydroxypropylcellulose) (HPC))?
The T/C was 154 % of control.

And the T/C (dose: 80.0 mg/kg/injection, schedule: Q03DX003 (ip), vehicle: saline)?
Its T/C is 33 % of control.

What does the source list for `COc1cc2ccc3c(c2cc1OC)CN1CCc2cc4c(cc2C1C3)OCO4` (stereo unspecified)?
T/C (dose: 44.0 mg/kg/injection, schedule: Q01DX009 (ip), vehicle: saline with Tween-80): 115 % of control; T/C [1]: 120 % of control; T/C (dose: 100.0 mg/kg/injection, schedule: Q04DX003 (ip), vehicle: saline): 118 % of control; T/C (dose: 200.0 mg/kg/injection, schedule: Q01DX009 (ip), vehicle: saline with Tween-80): 112 % of control; T/C (dose: 200.0 mg/kg/injection, schedule: Q04DX003 (ip), vehicle: saline): 100 % of control; T/C (dose: 400.0 mg/kg/injection, schedule: Q04DX003 (ip), vehicle: saline): 100 % of control

What does the source list for `COC(=O)[CH](C[N+](=O)[O-])[Hg][Cl]` (stereo unspecified)?
T/C (dose: 1.56 mg/kg/injection, schedule: Q01DX009 (ip), vehicle: Klucel (hydroxypropylcellulose) (HPC)): 104 % of control; T/C (dose: 2.32 mg/kg/injection, schedule: Q04DX003 (ip), vehicle: Klucel (hydroxypropylcellulose) (HPC)): 104 % of control; T/C (dose: 3.12 mg/kg/injection, schedule: Q01DX009 (ip), vehicle: Klucel (hydroxypropylcellulose) (HPC)): 113 % of control; T/C (dose: 4.65 mg/kg/injection, schedule: Q04DX003 (ip), vehicle: Klucel (hydroxypropylcellulose) (HPC)): 113 % of control

How did the T/C (dose: 0.75 mg/kg/injection, schedule: Q01DX009 (ip), vehicle: saline) turn out when `C=CC(=O)[O][Pb]([CH3])([CH3])[CH3]` was run?
Its T/C is 98 % of control.

What about the T/C (dose: 1.5 mg/kg/injection, schedule: Q01DX009 (ip), vehicle: saline) of the same compound?
The T/C was 96 % of control.

With `CCN(CC)P(Cl)(C1=C(Cl)C(=O)C(C#N)=C(C#N)C1=O)(N(CC)CC)N(CC)CC` as the compound, how does the T/C (dose: 25.0 mg/kg/injection, schedule: Q01DX001 (ip), vehicle: saline with Tween-80) read?
Its T/C is 97 % of control.

What about the T/C (dose: 50.0 mg/kg/injection, schedule: Q01DX001 (ip), vehicle: saline with Tween-80) of the same compound?
Its T/C is 95 % of control.

What about the T/C (dose: 100.0 mg/kg/injection, schedule: Q01DX001 (ip), vehicle: saline with Tween-80) of the same compound?
The T/C was 95 % of control.

Which results are given for `c1ccc2c[n+](CCCCCCCCCC[n+]3ccc4ccccc4c3)ccc2c1`?
T/C (dose: 1.0 mg/kg/injection, schedule: Q01DX009 (ip), vehicle: saline): 104 % of control; T/C (dose: 2.0 mg/kg/injection, schedule: Q01DX009 (ip), vehicle: saline): 113 % of control; T/C (dose: 2.5 mg/kg/injection, schedule: Q01DX009 (ip), vehicle: saline): 110 % of control and 115 % of control; T/C (dose: 2.6 mg/kg/injection, schedule: Q01DX009 (ip), vehicle: saline): 120 % of control; T/C (dose: 4.0 mg/kg/injection, schedule: Q01DX009 (ip), vehicle: saline): 110 % of control; T/C (dose: 5.0 mg/kg/injection, schedule: Q01DX009 (ip), vehicle: saline): 107 % of control; T/C (dose: 10.0 mg/kg/injection, schedule: Q01DX009 (ip), vehicle: saline): 103 % of control and 112 % of control

`C=C(C)C(N)C(=O)O` (stereo unspecified) was tested. Which T/C (dose: 100.0 mg/kg/injection, schedule: Q04DX003 (ip), vehicle: saline with Tween-80) did it give?
Its T/C is 118 % of control.

What about the T/C (dose: 200.0 mg/kg/injection, schedule: Q04DX003 (ip), vehicle: saline with Tween-80) of the same compound?
Its T/C is 104 % of control.

What about the T/C (dose: 400.0 mg/kg/injection, schedule: Q04DX003 (ip), vehicle: saline with Tween-80) of the same compound?
The T/C was 118 % of control.

How did the T/C (dose: 12.5 mg/kg/injection, schedule: Q01DX009 (ip), vehicle: saline with Tween-80) turn out when `CCCCCCCCCCCCCCCC[N+]1([O-])CCCC1` was run?
The T/C was 110 % of control.

What about the T/C (dose: 25.0 mg/kg/injection, schedule: Q01DX009 (ip), vehicle: saline with Tween-80) of the same compound?
Its T/C is 99 % of control.

What about the T/C [1] of the same compound?
The T/C was 108 % of control.
